Data as given in patent US20240217983A1, “GPR119 AGONISTS” (Kallyope, Inc., priority 2021, published 2024).

Molecular target: T1, human GPR119 (hGPR119) (Homo sapiens, UniProt Q8TDV5)
T1 construct: expressed in transfected cells
T1 sequence (Q8TDV5 1-335): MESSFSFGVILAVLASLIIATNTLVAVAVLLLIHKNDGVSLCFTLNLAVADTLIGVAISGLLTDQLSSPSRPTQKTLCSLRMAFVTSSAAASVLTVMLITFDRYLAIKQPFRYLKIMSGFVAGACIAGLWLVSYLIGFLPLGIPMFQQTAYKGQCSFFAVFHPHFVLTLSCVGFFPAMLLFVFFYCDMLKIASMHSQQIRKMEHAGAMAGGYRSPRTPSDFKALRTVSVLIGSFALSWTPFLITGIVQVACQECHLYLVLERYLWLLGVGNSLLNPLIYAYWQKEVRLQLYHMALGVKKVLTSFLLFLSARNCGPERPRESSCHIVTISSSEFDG
Assay: cAMP accumulation assay (Cisbio cAMP Gs dynamic HTRF kit) in CHO-K1 cells stably expressing human GPR119
Format: cell-based
Conditions: 4-parameter fit; for Emax: 1 h, % activity normalized to Max and Min controls; for EC50: 60 minutes at 37° C.
Experimental: CHO-K1 cells stably expressing human GPR119 (hGPR119) were prepared by transfection of a GPR119-carrying plasmid using Lipofectamine 2000 (following manufacturer instructions). A stable cell line was established using the limiting dilution method with geneticine selection. Assay-ready frozen (ARF) cells were prepared and used throughout the study.
The assay was performed in a 384-well plate format using the cAMP Gs dynamic assay kit from Cisbio. ARF cells expressing hGPR119 were thawed, washed and then resuspended in cAMP stimulation buffer at a cell density of 1.1×10^6 cells/mL. Cells were plated at a density of ˜10,000 cells/well (9 μL/well). Dose response curves for the tested compounds were prepared in a cAMP stimulation buffer, containing 0.1% Tween 80 at 4 fold the final concentration. The compounds were then transferred to the cell plates using BRAVO (3 μL/well) and the plates were incubated for 60 minutes at 37° C./5% CO2. Detection buffer (10 μL, prepared as described in the cAMP Gs dynamic kit) were added to each well, and the plates were incubated at ambient temperature for 1 hr.
RT-FRET was measured using a ClarioSTAR plate reader, calculating the ratio between emissions at 665 nm and 620 nm (HTRF ratio). The HTRF ratio for positive (Max) and negative (Min) controls were used to normalize HTRF data and generate values for % activity. EC50 and Max activity values were determined using a standard 4-parameter fit.

| Emax [%] | EC50 [nM] | Compound |
| --- | --- | --- |
| ≥ 130 | ≤ 100 | O=C(Cc1ccc(OCCCC2CCN(c3ncc(Cl)cn3)CC2)cc1F)N1CC2(C1)N(C[C@H](O)[C@@H](O)[C@H](O)[C@H](O)CO)CC2(F)F [Example 63, 2-(4-(3-(1-(5-chloropyrimidin-2-yl)piperidin-4-yl)propoxy)-2-fluorophenyl)-1-(3,3-difluoro-1-((2S,3R,4R,5R)-2,3,4,5,6-pentahydroxyhexyl)-1,6-diazaspiro[3.3]heptan-6-yl)ethan-1-one] |
| ≥ 130 | ≤ 100 | O=C(Cc1ccc(OCCCC2CCN(c3ncc(Cl)cn3)CC2)cc1F)N1CCC2(CCCC2NC[C@H](O)[C@@H](O)[C@H](O)[C@H](O)CO)C1 (stereo in doubt) [Example 77, 2-(4-(3-(1-(5-chloropyrimidin-2-yl)piperidin-4-yl)propoxy)-2-fluorophenyl)-1-(6-(((2S,3R,4R,5R)-2,3,4,5,6-pentahydroxyhexyl)amino)-2-azaspiro[4.4]nonan-2-yl)ethan-1-one] |
| 50 to 100 | > 10000 | O=C(Cc1ccc(OCCC2CCC23CCN(c2ncc(Cl)cn2)CC3)cc1F)N1CCN(C[C@H](O)[C@@H](O)[C@H](O)[C@H](O)CO)CC1 (stereo partly drawn) [Example 113, 2-(4-(2-(7-(5-chloropyrimidin-2-yl)-7-azaspiro[3.5]nonan-1-yl)ethoxy)-2-fluorophenyl)-1-(4-((2S,3R,4R,5R)-2,3,4,5,6-pentahydroxyhexyl)piperazin-1-yl)ethan-1-one] |
| ≥ 130 | ≤ 100 | O=C(Cc1ccc(OCCCC2CCN(c3ncc(Cl)cn3)CC2)cc1F)N1C[C@H]2C[C@@H]1CN2C[C@H](O)[C@H](O)[C@H](O)CO [Example 46, 2-(4-(3-(1-(5-chloropyrimidin-2-yl)piperidin-4-yl)propoxy)-2-fluorophenyl)-1-((1R,4R)-5-((2S,3S,4R)-2,3,4,5-tetrahydroxypentyl)-2,5-diazabicyclo[2.2.1]heptan-2-yl)ethan-1-one] |
| 100 to 130 | ≤ 100 | O=C(CCCCS(=O)(=O)O)N1C[C@@H]2C[C@H]1CN2C(=O)Cc1ccc(OCCCC2CCN(c3ncc(Cl)cn3)CC2)cc1F [Example 15, 5-((1S,4S)-5-(2-(4-(3-(1-(5-chloropyrimidin-2-yl)piperidin-4-yl)propoxy)-2-fluorophenyl)acetyl)-2,5-diazabicyclo[2.2.1]heptan-2-yl)-5-oxopentane-1-sulfonic acid] |
| 100 to 130 | ≤ 100 | O=C(Cc1ccc(OCCCC2CCN(c3ncc(Cl)cn3)CC2)cc1F)N1C2CC1CN(C[C@H](O)[C@H](O)[C@H](O)CO)C2 [Example 56, 2-(4-(3-(1-(5-chloropyrimidin-2-yl)piperidin-4-yl)propoxy)-2-fluorophenyl)-1-(3-((2S,3S,4R)-2,3,4,5-tetrahydroxypentyl)-3,6-diazabicyclo[3.1.1]heptan-6-yl)ethan-1-one] |
| 100 to 130 | ≤ 100 | O=C(CCCCS(=O)(=O)O)N1C[C@@H]2CN(C(=O)Cc3ccc(OCCCC4CCN(c5ncc(Cl)cn5)CC4)cc3F)C[C@@H]2C1 [Example 10, 5-((3aR,6aS)-5-(2-(4-(3-(1-(5-chloropyrimidin-2-yl)piperidin-4-yl)propoxy)-2-fluorophenyl)acetyl)hexahydropyrrolo[3,4-c]pyrrol-2(1H)-yl)-5-oxopentane-1-sulfonic acid] |
| 100 to 130 | ≤ 100 | CCCc1cnc(N2CCC(CCCOc3ccc(CC(=O)N4CCN(C[C@H](O)[C@@H](O)[C@H](O)[C@H](O)CO)CC4)c(F)c3)CC2)nc1 [Example 94, 2-(2-fluoro-4-(3-(1-(5-propylpyrimidin-2-yl)piperidin-4-yl)propoxy)phenyl)-1-(4-((2S,3R,4R,5R)-2,3,4,5,6-pentahydroxyhexyl)piperazin-1-yl)ethan-1-one] |
| 100 to 130 | > 10000 | O=C(Cc1ccc(OCCCC2CCN(c3ncc(Cl)cn3)CC2)cc1F)N1CCC12CN(C[C@H](O)[C@@H](O)[C@H](O)[C@H](O)CO)C2 [Example 41, 2-(4-(3-(1-(5-chloropyrimidin-2-yl)piperidin-4-yl)propoxy)-2-fluorophenyl)-1-(6-((2S,3R,4R,5R)-2,3,4,5,6-pentahydroxyhexyl)-1,6-diazaspiro[3.3]heptan-1-yl)ethan-1-one] |
| 100 to 130 | ≤ 100 | O=C(CCCCS(=O)(=O)O)N1C[C@H]2C[C@@H]1CN2C(=O)Cc1ccc(OCCCC2CCN(c3ncc(Cl)cn3)CC2)cc1F [Example 11, 5-((1R,4R)-5-(2-(4-(3-(1-(5-chloropyrimidin-2-yl)piperidin-4-yl)propoxy)-2-fluorophenyl)acetyl)-2,5-diazabicyclo[2.2.1]heptan-2-yl)-5-oxopentane-1-sulfonic acid] |
| 100 to 130 | ≤ 100 | O=C(Cc1ccc(OCCCC2CCN(c3ncc(Cl)cn3)CC2)cc1F)N1CCC2(CC1)CCN2C[C@H](O)[C@H](O)[C@H](O)CO [Example 67, 2-(4-(3-(1-(5-chloropyrimidin-2-yl)piperidin-4-yl)propoxy)-2-fluorophenyl)-1-(1-((2S,3S,4R)-2,3,4,5-tetrahydroxypentyl)-1,7-diazaspiro[3.5]nonan-7-yl)ethan-1-one] |
| 100 to 130 | 100 to 1000 | O=C(Cc1ccc(OCCCC2CCN(c3ncc(Cl)cn3)CC2)cc1F)N1C[C@H]2CN(C[C@H](O)[C@H](O)[C@H](O)CO)[C@H]2C1 [Example 36, 2-(4-(3-(1-(5-chloropyrimidin-2-yl)piperidin-4-yl)propoxy)-2-fluorophenyl)-1-((1R,5R)-6-((2S,3S,4R)-2,3,4,5-tetrahydroxypentyl)-3,6-diazabicyclo[3.2.0]heptan-3-yl)ethan-1-one] |
| 100 to 130 | ≤ 100 | O=C(Cc1ccc(OCCCC2CCN(c3ncc(Cl)cn3)CC2)cc1F)N1CCN(C[C@H](O)[C@@H](O)[C@H](O)[C@H](O)CO)CC1 [Example 27, 2-(4-(3-(1-(5-chloropyrimidin-2-yl)piperidin-4-yl)propoxy)-2-fluorophenyl)-1-(4-((2S,3R,4R,5R)-2,3,4,5,6-pentahydroxyhexyl)piperazin-1-yl)ethan-1-one] |
| 100 to 130 | ≤ 100 | O=C(Cc1ccc(OCCCC2CCN(c3ncc(Cl)cn3)CC2)cc1F)N1CC2(CN(C[C@H](O)[C@@H](O)[C@H](O)[C@H](O)CO)C2)C1 [Example 26, 2-(4-(3-(1-(5-chloropyrimidin-2-yl)piperidin-4-yl)propoxy)-2-fluorophenyl)-1-(6-((2S,3R,4R,5R)-2,3,4,5,6-pentahydroxyhexyl)-2,6-diazaspiro[3.3]heptan-2-yl)ethan-1-one] |
| 100 to 130 | ≤ 100 | O=C(Cc1ccc(OCCCC2CCN(c3ncc(Cl)cn3)CC2)cc1F)N1CCC2(CCN2C[C@H](O)[C@H](O)[C@H](O)CO)C1 (stereo partly drawn) [Example 30, 2-(4-(3-(1-(5-chloropyrimidin-2-yl)piperidin-4-yl)propoxy)-2-fluorophenyl)-1-(1-((2S,3S,4R)-2,3,4,5-tetrahydroxypentyl)-1,6-diazaspiro[3.4]octan-6-yl)ethan-1-one] |
| 100 to 130 | ≤ 100 | O=C(Cc1ccc(OCCCC2CCN(c3ncc(Cl)cn3)CC2)cc1F)N1CCC2(CC1)CCN2C(=O)CCCCS(=O)(=O)O [Example 21, 5-(7-(2-(4-(3-(1-(5-chloropyrimidin-2-yl)piperidin-4-yl)propoxy)-2-fluorophenyl)acetyl)-1,7-diazaspiro[3.5]nonan-1-yl)-5-oxopentane-1-sulfonic acid] |
| ≥ 130 | ≤ 100 | O=C(Cc1ccc(OCCCC2CCN(c3ncc(Cl)cn3)CC2)cc1F)N1CCC2(C1)CN(C(=O)CCCCS(=O)(=O)O)C2 [Example 2, 5-(6-(2-(4-(3-(1-(5-chloropyrimidin-2-yl)piperidin-4-yl)propoxy)-2-fluorophenyl)acetyl)-2,6-diazaspiro[3.4]octan-2-yl)-5-oxopentane-1-sulfonic acid] |
| 100 to 130 | ≤ 100 | O=C(Cc1ccc(OCCCC2CCN(c3ncc(Cl)cn3)CC2)cc1F)N1CCCN(C[C@H](O)[C@H](O)[C@H](O)CO)CC1 [Example 50, 2-(4-(3-(1-(5-chloropyrimidin-2-yl)piperidin-4-yl)propoxy)-2-fluorophenyl)-1-(4-((2S,3S,4R)-2,3,4,5-tetrahydroxypentyl)-1,4-diazepan-1-yl)ethan-1-one] |

| Compound | Emax [%] | EC50 [nM] |
| --- | --- | --- |
| O=C(Cc1ccc(OCCCC2CCN(c3ncc(Cl)cn3)CC2)cc1F)N1CC2CC(C1)N2C(=O)CCCCS(=O)(=O)O [Example 12, 5-(3-(2-(4-(3-(1-(5-chloropyrimidin-2-yl)piperidin-4-yl)propoxy)-2-fluorophenyl)acetyl)-3,6-diazabicyclo[3.1.1]heptan-6-yl)-5-oxopentane-1-sulfonic acid] | 100 to 130 | ≤ 100 |
